Reference: patent US20240024273A1, “TOPICAL ADMINISTRATION OF 2-(DIETHYLAMINO)ETHYL 2-(4-ISOBUTYLPHENYL)PROPRIONATE FOR TREATMENT OF DISEASES” (TECHFIELDS PHARMA CO., LTD., priority 2020, published 2024)

Tests used:
Type in all cases: in vivo, human
[1] = test system: osteoarthritis of the knee; experiment: Second Phase 2 study: WOMAC difficulty performing daily activities (functional ability) subscale score
Source text: (§1) This is a Phase 2, multicenter, randomized, double blind (within dose), Ibuprofen-placebo controlled, parallel group, dose range finding study to evaluate the efficacy, safety, and PK of 2-(diethylamino)ethyl 2-(4-isobutylphenyl)propionate spray in adult subjects with clinically symptomatic OA of the knee. For subjects with bilateral knee pain, both knees will be treated, but the most symptomatic knee (ie, the most painful knee as measured by the Western Ontario and McMaster University Osteoarthritis Index [WOMAC® 3.1] pain subscale score at Screening) will be designated as the target knee for efficacy analyses. For subjects with unilateral knee pain, only the symptomatic (target) knee will be treated.
(§2) The VAS version of the WOMAC will be used for the Primary and Secondary Efficacy Endpoints. Efficacy endpoints will be assessed at Screening and Baseline (Day 1) and at the Week 2, Week 4, Week 8, and Week 12/EOS visits.
(§3) 4.9.2. Secondary Efficacy Endpoints: • 1. Change from Baseline in the WOMAC (VAS) pain subscale score for the target knee at 2, 8, and 12 weeks of treatment; • 2. Change from Baseline in the WOMAC (VAS) stiffness subscale scores for the target knee and WOMAC (VAS) functional ability subscale scores at 2, 4, 8, and 12 weeks of treatment; • 3. Change from Baseline in the overall WOMAC (VAS) score at 2, 4, 8, and 12 weeks of treatment; • 4. Subject's global assessment of disease status of the target knee at 2, 4, 8, and 12 weeks of treatment; • 5. Subject's global assessment of response to therapy of the target knee at 2, 4, 8, and 12 weeks of treatment; • 6. Amount of rescue medication (acetaminophen) consumed per day for target knee pain.
(§4) The Secondary Efficacy Endpoints, change from Baseline in the WOMAC subscale scores for pain, stiffness, and functional ability, and overall WOMAC score at 2, 4, 8, and 12 weeks of treatment, will be analyzed using the same methods as for the Primary Efficacy Endpoint.

[2] = test system: osteoarthritis of the knee; experiment: Second Phase 2 study: WOMAC overall score
Source text: as §1, §2, §3, §4

[3] = test system: osteoarthritis of the knee; experiment: Second Phase 2 study: Investigator's global assessment of disease status (IGADS); conditions: Week 12
[4] = Baseline, oral, 3 × 400 mg (n = 20), first 130 subjects
[5] = Week 12, oral, 3 × 400 mg (n = 20), first 130 subjects
[6] = all subjects, Oral Ibuprofen 3 × 400 mg, n = 48, Week 12
[7] = all subjects, Oral Ibuprofen 3 × 400 mg, n = 48 vs. Placebo n = 48
[8] = oral 3×400 mg, first 130 subjects
[9] = oral, 3 x 400 mg (n = 20), first 130 subjects
[10] = all subjects, Oral Ibuprofen 3 × 400 mg, n = 48

Q: How did the “WOMAC Difficulty Performing Daily Activities Subscale Scores, Baseline (LS Mean)” value [1, 4] turn out when `CC(C)Cc1ccc(C(C)C(=O)O)cc1` (centres unmarked) [Ibuprofen, 2-(4-isobutylphenyl)propionic acid, reference compound] was run?
A: 65.5 mm

Q: And the “WOMAC Difficulty Performing Daily Activities Subscale Scores, % of improvement from Placebo” value [1, 5]?
A: −3.3%

Q: And the “WOMAC Difficulty Performing Daily Activities Subscale Scores, % of improvement from baseline” value [1, 5]?
A: −33.0%

Q: What about the “WOMAC Difficulty Performing Daily Activities Subscale Scores, Changes from Baseline (LS Mean)” value [1, 5] of the same molecule?
A: −21.6 mm

Q: And the “WOMAC Difficulty Performing Daily Activities Subscale Scores, Different from placebo (LS Mean)” value [1, 5]?
A: −3.5 mm

Q: What about the “WOMAC Difficulty Performing Daily Activities Subscale Scores, Week 12 (LS Mean)” value [1, 5] of the same molecule?
A: 43.9 mm

Q: And the “WOMAC Difficulty Performing Daily Activities Subscale Scores, % of improvement from Placebo” value [1, 6]?
A: −4.3%

Q: And the “WOMAC Difficulty Performing Daily Activities Subscale Scores, % of improvement from baseline” value [1, 6]?
A: −41.5%

Q: What about the “WOMAC Difficulty Performing Daily Activities Subscale Scores, Changes from Baseline (LS Mean)” value [1, 6] of the same molecule?
A: −25.3 mm

Q: What about the “WOMAC Difficulty Performing Daily Activities Subscale Scores, Week 12 (LS Mean)” value [1, 6] of the same molecule?
A: 35.7 mm

Q: And the “WOMAC Functional Ability, difference vs. Placebo” value [1, 7]?
A: −3.4 mm

Q: And the “WOMAC functional ability, difference from placebo” value [1, 8]?
A: −3.5 mm

Q: What about the “WOMAC Overall Scores, Baseline (LS Mean)” value [2, 4] of the same molecule?
A: 65.0 mm

Q: What about the “WOMAC Overall Scores, % of improvement from baseline” value [2, 5] of the same molecule?
A: −33.1%

Q: What about the “WOMAC Overall Scores, % of improvement from placebo” value [2, 5] of the same molecule?
A: −2.9%

Q: What about the “WOMAC Overall Scores, Changes from Baseline (LS Mean)” value [2, 5] of the same molecule?
A: −21.5 mm

Q: And the “WOMAC Overall Scores, Different from placebo (LS Mean)” value [2, 5]?
A: −3.1 mm

Q: What about the “WOMAC Overall Scores, Week 12 (LS Mean)” value [2, 5] of the same molecule?
A: 43.5 mm

Q: And the “WOMAC Overall Scores, % of improvement from baseline” value [2, 6]?
A: −41.3%

Q: And the “WOMAC Overall Scores, % of improvement from placebo” value [2, 6]?
A: −5.1%

Q: And the “WOMAC Overall Scores, Changes from Baseline (LS Mean)” value [2, 6]?
A: −24.9 mm

Q: What about the “WOMAC Overall Scores, Week 12 (LS Mean)” value [2, 6] of the same molecule?
A: 35.4 mm

Q: What about the “WOMAC Total, difference vs. Placebo” value [2, 7] of the same molecule?
A: −3.6 mm

Q: And the “WOMAC overall, difference from placebo” value [2, 8]?
A: −3.0 mm

Q: And the “IGADS: Good and Very good” value [3, 9]?
A: 40.0%

Q: And the “IGADS: Poor and Very Poor” value [3, 9]?
A: 15.0%

Q: And the “IGADS: fair” value [3, 9]?
A: 45.0%

Q: What about the “IGADS, Good and Very good” value [3, 10] of the same molecule?
A: 39.6%

Q: What about the “IGADS, Poor and Very Poor” value [3, 10] of the same molecule?
A: 4.1%
